Source: patent US12226424B2, “Target protein degradation compounds, their anti-tumor use, their intermediates and use of intermediates” (ShanghaiTech University, priority 2018, dated 2025)

Each compound was assayed on SR cells (assay: Half inhibitory concentration (IC50) on ALK-positive SR cell proliferation (CCK-8)). Details: Homo sapiens; SR cells, 72 h drug treatment, CCK-8; read-out: IC50 (nM)/ SR cell line.
Assay type: cell-based
Description: ALK-positive SR cells (human large cell immunoblastic lymphoma) were purchased from the American Type Culture Collection (ATCC); H3122 cells (human non-small cell lung cancer) were from the Shanghai University of Science and Technology Lin Haifan's research group.
The cells used in this present disclosure were cultured in a 37° C. incubator containing 5% CO2.
SR cells were seeded in 100 μL RPMI1640 complete medium at a density of 10,000 cells/well. 100 μL of the inoculated cells were treated with 0.5 μL diluted PROTAD compound of the present disclosure to be tested at 10 successively decreasing concentrations (starting at the highest concentration of 10 μM; 5-fold serial dilutions) After the cells were treated with the drug for 72 h, cell viability was determined according to the CCK-8 reagent operating instructions. The negative control was DMSO, and the positive control was a commercial inhibitor. After CCK-8 treatment for 2 h, the value of O.D.450 was measured using a microplate reader.

Row | SMILES | IC50 [nM]
1 | CCc1cc2c(cc1N1CCC(N3CCN(C(=O)CCCSc4cccc5c4C(=O)N(C4CCC(=O)NC4=O)C5=O)CC3)CC1)C(C)(C)c1[nH]c3cc(C#N)ccc3c1C2=O (centres unmarked) [SIAIS219006, 8-(4-(4-(4-((2-(2,6-dioxopiperidin-3-yl)-1,3-dioxoisoindolin-4-yl)thio)butanoyl)piperazin-1-yl)piperidin-1-yl)-9-ethyl-6,6-dimethyl-11-oxo-6,11-dihydro-5H-benzo[b]carbazole-3-carbonitrile] | 16.4
2 | COc1cc(N2CCC(NC(=O)CCCCCCSc3cccc4c3CN(C3CCC(=O)NC3=O)C4=O)CC2)ccc1Nc1ncc(Cl)c(Nc2ccccc2P(C)(C)=O)n1 (centres unmarked) [SIAIS219138, N-(1-(4-((5-chloro-4-((2-(dimethylphosphoryl)phenyl)amino)pyrimidin-2-yl)amino)-3-methoxyphenyl)piperidin-4-yl)-7-((2-(2,6-dioxopiperidin-3-yl)-1-oxoisoindolin-4-yl)thio)heptanamide] | 0.29 ± 0.01
3 | CCc1cc2c(cc1N1CCC(N3CCN(C(=O)COCCOCCOCCSc4cccc5c4CN(C4CCC(=O)NC4=O)C5=O)CC3)CC1)C(C)(C)c1[nH]c3cc(C#N)ccc3c1C2=O (centres unmarked) [SIAIS249068, 8-(4-(4-(2-(2-(2-(2-((2-(2,6-dioxopiperidin-3-yl)-1-oxoisoindolin-4-yl)thio)ethoxy)ethoxy)ethoxy)acetyl)piperazin-1-yl)piperidin-1-yl)-9-ethyl-6,6-dimethyl-11-oxo-6,11-dihydro-5H-benzo[b]carbazole-3-carbonitrile] | 0.33 ± 0.06
4 | CCc1cc2c(cc1N1CCC(NC(=O)CSc3cccc4c3C(=O)N(C3CCC(=O)NC3=O)C4=O)CC1)C(C)(C)c1[nH]c3cc(C#N)ccc3c1C2=O (centres unmarked) [SIAIS219012, N-(1-(3-cyano-9-ethyl-6,6-dimethyl-11-oxo-6,11-dihydro-5H-benzo[b]carbazol-8-yl)piperidin-4-yl)-2-((2-(2,6-dioxopiperidin-3-yl)-1,3-dioxoisoindolin-4-yl)thio)acetamide] | 146
5 | CCc1cc2c(cc1N1CCC(N3CCN(C(=O)CCSc4cccc5c4CN(C4CCC(=O)NC4=O)C5=O)CC3)CC1)C(C)(C)c1[nH]c3cc(C#N)ccc3c1C2=O (centres unmarked) [SIAIS262097, 8-(4-(4-(3-((2-(2,6-dioxopiperidin-3-yl)-1-oxoisoindolin-4-yl)thio)propanoyl)piperazin-1-yl)piperidin-1-yl)-9-ethyl-6,6-dimethyl-11-oxo-6,11-dihydro-5H-benzo[b]carbazole-3-carbonitrile] | 3.89 ± 0.78
6 | COc1cc(N2CCC(NC(=O)COCCSc3cccc4c3CN(C3CCC(=O)NC3=O)C4=O)CC2)ccc1Nc1ncc(Cl)c(Nc2ccccc2P(C)(C)=O)n1 (centres unmarked) [SIAIS219139, N-(1-(4-((5-chloro-4-((2-(dimethylphosphoryl)phenyl)amino)pyrimidin-2-yl)amino)-3-methoxyphenyl)piperidin-4-yl)-2-(2-((2-(2,6-dioxopiperidin-3-yl)-1-oxoisoindolin-4-yl)thio)ethoxy)acetamide] | 1.08 ± 0.1
7 | CCc1cc2c(cc1N1CCN(C3CCN(C(=O)CSc4cccc5c4C(=O)N(C4CCC(=O)NC4=O)C5=O)CC3)CC1)C(C)(C)c1[nH]c3cc(C#N)ccc3c1C2=O (centres unmarked) [SIAIS219005, 8-(4-(1-(2-((2-(2,6-dioxopiperidin-3-yl)-1,3-dioxoisoindolin-4-yl)thio)acetyl)piperidin-4-yl)piperazin-1-yl)-9-ethyl-6,6-dimethyl-11-oxo-6,11-dihydro-5H-benzo[b]carbazole-3-carbonitrile] | 8.7
8 | CCc1cc2c(cc1N1CCC(N3CCN(C(=O)COCCOCCOCCOCCSc4cccc5c4CN(C4CCC(=O)NC4=O)C5=O)CC3)CC1)C(C)(C)c1[nH]c3cc(C#N)ccc3c1C2=O (centres unmarked) [SIAIS249069, 8-(4-(4-(14-((2-(2,6-dioxopiperidin-3-yl)-1-oxoisoindolin-4-yl)thio)-3,6,9,12-tetraoxatetradecanoyl)piperazin-1-yl)piperidin-1-yl)-9-ethyl-6,6-dimethyl-11-oxo-6,11-dihydro-5H-benzo[b]carbazole-3-carbonitrile] | 0.81 ± 0.28
9 | COc1cc(N2CCC(NC(=O)COCCOCCOCCOCCSc3cccc4c3CN(C3CCC(=O)NC3=O)C4=O)CC2)ccc1Nc1ncc(Cl)c(Nc2ccccc2P(C)(C)=O)n1 (centres unmarked) [SIAIS219142, N-(1-(4-((5-chloro-4-((2-(dimethylphosphoryl)phenyl)amino)pyrimidin-2-yl)amino)-3-methoxyphenyl)piperidin-4-yl)-14-((2-(2,6-dioxopiperidin-3-yl)-1-oxoisoindolin-4-yl)thio)-3,6,9,12-tetraoxatetradecan-1-amide] | 7 ± 1
10 | COc1cc(N2CCC(NC(=O)CSc3cccc4c3CN(C3CCC(=O)NC3=O)C4=O)CC2)ccc1Nc1ncc(Cl)c(Nc2ccccc2P(C)(C)=O)n1 (centres unmarked) [SIAIS219133, N-(1-(4-((5-chloro-4-((2-(dimethylphosphoryl)phenyl)amino)pyrimidin-2-yl)amino)-3-methoxyphenyl)piperidin-4-yl)-2-((2-(2,6-dioxopiperidin-3-yl)-1-oxoisoindolin-4-yl)thio)acetamide] | 2.9 ± 0.1
11 | CCc1cc2c(cc1N1CCC(N3CCN(CCSc4cccc5c4C(=O)N(C4CCC(=O)NC4=O)C5=O)CC3)CC1)C(C)(C)c1[nH]c3cc(C#N)ccc3c1C2=O (centres unmarked) [SIAIS262158, 8-(4-(4-(2-((2-(2,6-dioxopiperidin-3-yl)-1,3-dioxoisoindolin-4-yl)thio)ethyl)piperazin-1-yl)piperidin-1-yl)-9-ethyl-6,6-dimethyl-11-oxo-6,11-dihydro-5H-benzo[b]carbazole-3-carbonitrile] | 2.9
12 | COc1cc(N2CCC(NC(=O)CCCCSc3cccc4c3CN(C3CCC(=O)NC3=O)C4=O)CC2)ccc1Nc1ncc(Cl)c(Nc2ccccc2P(C)(C)=O)n1 (centres unmarked) [SIAIS219136, N-(1-(4-((5-chloro-4-((2-(dimethylphosphoryl)phenyl)amino)pyrimidin-2-yl)amino)-3-methoxyphenyl)piperidin-4-yl)-5-((2-(2,6-dioxopiperidin-3-yl)-1-oxoisoindolin-4-yl)thio)pentanamide] | 0.43 ± 0.09
13 | COc1cc(N2CCC(NC(=O)CCCCCSc3cccc4c3CN(C3CCC(=O)NC3=O)C4=O)CC2)ccc1Nc1ncc(Cl)c(Nc2ccccc2P(C)(C)=O)n1 (centres unmarked) [SIAIS219137, N-(1-(4-((5-chloro-4-((2-(dimethylphosphoryl)phenyl)amino)pyrimidin-2-yl)amino)-3-methoxyphenyl)piperidin-4-yl)-6-((2-(2,6-dioxopiperidin-3-yl)-1-oxoisoindolin-4-yl)thio)hexanamide] | 0.48 ± 0.05
14 | CCc1cc2c(cc1N1CCC(NC(=O)COCCSc3cccc4c3CN(C3CCC(=O)NC3=O)C4=O)CC1)C(C)(C)c1[nH]c3cc(C#N)ccc3c1C2=O (centres unmarked) [SIAIS262163, N-(1-(3-cyano-9-ethyl-6,6-dimethyl-11-oxo-6,11-dihydro-5H-benzo[b]carbazol-8-yl)piperidin-4-yl)-2-(2-((2-(2,6-dioxopiperidin-3-yl)-1-oxoisoindolin-4-yl)thio)ethoxy)acetamide] | 1.6
15 | CCc1cc2c(cc1N1CCC(N3CCN(C(=O)CCCCCSc4cccc5c4C(=O)N(C4CCC(=O)NC4=O)C5=O)CC3)CC1)C(C)(C)c1[nH]c3cc(C#N)ccc3c1C2=O (centres unmarked) [SIAIS219007, 8-(4-(4-(6-((2-(2,6-dioxopiperidin-3-yl)-1,3-dioxoisoindolin-4-yl)thio)hexanoyl)piperazin-1-yl)piperidin-1-yl)-9-ethyl-6,6-dimethyl-11-oxo-6,11-dihydro-5H-benzo[b]carbazole-3-carbonitrile] | 50.1
16 | CCc1cc2c(cc1N1CCC(NC(=O)CSc3cccc4c3CN(C3CCC(=O)NC3=O)C4=O)CC1)C(C)(C)c1[nH]c3cc(C#N)ccc3c1C2=O (centres unmarked) [SIAIS262161, N-(1-(3-cyano-9-ethyl-6,6-dimethyl-11-oxo-6,11-dihydro-5H-benzo[b]carbazol-8-yl)piperidin-4-yl)-2-((2-(2,6-dioxopiperidin-3-yl)-1-oxoisoindolin-4-yl)thio)acetamide] | 1.86
17 | COc1cc(N2CCC(NC(=O)COCCOCCOCCSc3cccc4c3CN(C3CCC(=O)NC3=O)C4=O)CC2)ccc1Nc1ncc(Cl)c(Nc2ccccc2P(C)(C)=O)n1 (centres unmarked) [SIAIS219141, N-(1-(4-((5-chloro-4-((2-(dimethylphosphoryl)phenyl)amino)pyrimidin-2-yl)amino)-3-methoxyphenyl)piperidin-4-yl)-2-(2-(2-(2-((2-(2,6-dioxopiperidin-3-yl)-1-oxoisoindolin-4-yl)thio)ethoxy)ethoxy)ethoxy)acetamide] | 5 ± 0.71
18 | CCc1cc2c(cc1N1CCC(N3CCN(C(=O)CSc4cccc5c4CN(C4CCC(=O)NC4=O)C5=O)CC3)CC1)C(C)(C)c1[nH]c3cc(C#N)ccc3c1C2=O (centres unmarked) [SIAIS262096, 8-(4-(4-(2-((2-(2,6-dioxopiperidin-3-yl)-1-oxoisoindolin-4-yl)thio)acetyl)piperazin-1-yl)piperidin-1-yl)-9-ethyl-6,6-dimethyl-11-oxo-6,11-dihydro-5H-benzo[b]carbazole-3-carbonitrile] | 0.22 ± 0.11
19 | CCc1cc2c(cc1N1CCC(N3CCN(C(=O)CCCCCSc4cccc5c4CN(C4CCC(=O)NC4=O)C5=O)CC3)CC1)C(C)(C)c1[nH]c3cc(C#N)ccc3c1C2=O (centres unmarked) [SIAIS262100, 8-(4-(4-(6-((2-(2,6-dioxopiperidin-3-yl)-1-oxoisoindolin-4-yl)thio)hexanoyl)piperazin-1-yl)piperidin-1-yl)-9-ethyl-6,6-dimethyl-11-oxo-6,11-dihydro-5H-benzo[b]carbazole-3-carbonitrile] | 0.52 ± 0.48
20 | CCc1cc2c(cc1N1CCC(NC(=O)CCCCCSc3cccc4c3CN(C3CCC(=O)NC3=O)C4=O)CC1)C(C)(C)c1[nH]c3cc(C#N)ccc3c1C2=O (centres unmarked) [SIAIS262162, N-(1-(3-cyano-9-ethyl-6,6-dimethyl-11-oxo-6,11-dihydro-5H-benzo[b]carbazol-8-yl)piperidin-4-yl)-6-((2-(2,6-dioxopiperidin-3-yl)-1-oxoisoindolin-4-yl)thio)hexanamide] | 11.3
